In patent publication US8653087B2, “Pyrido [5, 4-D] pyrimidines as cell proliferation inhibitors” (Boehringer Ingelheim International GmbH, priority 2008, dated 2014):

target: B-Raf (V600E)-kinase (Homo sapiens (Human), UniProt P15056, V600E); assay: Kinase test B-RAF (V600E); format: biochemical; conditions: B-RAF (V600E) kinase test, 250 μM ATP
Experimental: Kinase Test B-RAF (V600E)
In a dilution series 10 μL of test substance solution are placed in a multiwell plate. The dilution series is selected so that generally a range of concentrations of 2 μM to 0.119 nM or 0.017 nM is covered. If necessary the initial concentration of 2 μM is changed to 50 μM, 10 μM or 0.4 μM or 0.2857 μM and further dilution is carried out accordingly. The final concentration of DMSO is 5%. 10 μL of the B-Raf (V600E)-kinase solution are pipetted in (containing 0.5 ng B-Raf (V600E)-kinase in 20 mM Tris-HCl pH 7.5, 0.1 mM EDTA, 0.1 mM EGTA, 0.286 mM sodium orthovanadate, 10% glycerol, 1 mg/mL bovine serum albumin, 1 mM dithiothreitol) and the mixture is incubated for 24 h at RT under with shaking. The kinase reaction is started by the addition of 20 μL ATP solution [final concentration: 250 μM ATP, 30 mM Tris-HCl pH 7.5, 0.02% Brij, 0.2 mM sodium orthovanadate, 10 mM magnesium acetate, 0.1 mM EGTA, phosphatase cocktail (Sigma, # P2850, dilution recommended by the manufacturer), 0.1 mM EGTA] and 10 μL MEK1 solution [containing 50 ng biotinylated MEK1 (prepared from purified MEK1 according to standard procedure, e.g. with EZ-Link Sulpho-NHS-LC-Biotin reagent, Pierce, #21335) and carried out for 60 min at RT with constant shaking. The reaction is stopped by the addition of 12 μL of a 100 mM EDTA solution and incubation is continued for a further 5 min. 55 μL of the reaction solution are transferred into a streptavidin-coated plate (e.g. Streptawell HighBond, Roche, #11989685001) and shaken gently for 1 h at RT, in order to bind biotinylated MEK1 to the plate. After elimination of the liquid the plate is washed five times with 200 μL of 1×PBS and 100 μL solution of primary antibody plus europium-labelled secondary antibody [Anti Phospho-MEK (Ser217/221), Cell Signaling, #9121 and Eu-N1 labeled goat-anti-rabbit antibody, Perkin Elmer, # AD0105], the primary antibody is diluted 1:2000 and the secondary antibody is diluted to 0.4-0.5 μg/mL in Delfia Assay Buffer (Perkin Elmer, #1244-111). After 1 h shaking at RT the solution is poured away and washed five times with 200 μL Delfia Wash Buffer (Perkin Elmer, #4010-0010/#1244-114). After the addition of 200 μL Enhancement Solution (Perkin Elmer, #4001-0010/#1244-105) the mixture is shaken for 10 min at RT and then measured in a Wallac Victor using the program “Delfia Time Resolved Fluorescence (Europium)”. IC50 values are obtained from these dosage-activity curves using a software program (GraphPadPrizm).

Sequence of B-Raf (V600E)-kinase (P15056 whole entry V600E): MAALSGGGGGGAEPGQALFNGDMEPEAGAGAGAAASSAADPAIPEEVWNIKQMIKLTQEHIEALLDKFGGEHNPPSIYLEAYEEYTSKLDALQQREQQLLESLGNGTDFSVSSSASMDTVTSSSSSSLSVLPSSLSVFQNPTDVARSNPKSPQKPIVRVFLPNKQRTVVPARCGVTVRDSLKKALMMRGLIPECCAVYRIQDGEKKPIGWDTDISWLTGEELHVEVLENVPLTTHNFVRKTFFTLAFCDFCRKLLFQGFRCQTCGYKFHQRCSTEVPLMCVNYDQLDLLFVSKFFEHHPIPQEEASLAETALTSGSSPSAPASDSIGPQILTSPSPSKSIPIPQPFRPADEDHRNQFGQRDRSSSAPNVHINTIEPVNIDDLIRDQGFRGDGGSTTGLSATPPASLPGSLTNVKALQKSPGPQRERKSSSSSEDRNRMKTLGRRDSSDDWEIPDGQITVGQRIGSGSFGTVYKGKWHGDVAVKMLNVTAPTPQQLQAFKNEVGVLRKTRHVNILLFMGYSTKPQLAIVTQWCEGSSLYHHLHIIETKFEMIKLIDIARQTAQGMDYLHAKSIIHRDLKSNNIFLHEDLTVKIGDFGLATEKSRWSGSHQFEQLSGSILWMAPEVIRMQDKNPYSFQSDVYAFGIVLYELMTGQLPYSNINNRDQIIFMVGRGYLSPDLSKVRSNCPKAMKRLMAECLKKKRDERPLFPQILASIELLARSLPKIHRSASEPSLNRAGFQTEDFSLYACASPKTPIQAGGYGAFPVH

Row | Structure (SMILES) | IC50 [nM]
1 | Cc1ccc(C(=O)Nc2cccc(OC(F)(F)F)c2)cc1Nc1ncnc2cnc(N3CCCCC3)nc12 [III-332] | 4
2 | CCN1CCN(c2ncc3ncnc(Nc4cc(C(=O)Nc5cc(C(C)(C)C)on5)ccc4F)c3n2)CC1 [III-398] | 1
3 | CN1CCN(c2ncc3ncnc(Nc4cc(C(=O)Nc5cc(C(C)(C)C)on5)ccc4C(F)(F)F)c3n2)CC1 [III-60] | 230
4 | Cc1ccc(NC(=O)c2cccc(C(C)(C)C#N)c2)cc1Nc1ncnc2cnc(N(C)CCCN(C)C)nc12 [IV-22] | 2
5 | Cc1ccc(C(=O)Nc2cc(OCCN3CCCC3)cc(C(F)(F)F)c2)cc1Nc1ncnc2cnc(N3CCOCC3)nc12 [III-523] | 1
6 | CC(C)(C)c1cc(NC(=O)c2ccc(F)c(Nc3ncnc4cnc(NCCN5CCOCC5)nc34)c2)no1 [III-92] | 1
7 | Cc1ccc(C(=O)Nc2ccc(Cl)c(C(F)(F)F)c2)cc1Nc1ncnc2cnc(N3CC[C@H](F)C3)nc12 [III-289] | 13
8 | COc1ccc(C(=O)Nc2ccc(OC)c(C(F)(F)F)c2)cc1Nc1ncnc2cnc(N(C)CCN3CCCC3)nc12 [III-21] | 3
9 | CN(C)CCN(C)c1ncc2ncnc(Nc3cc(C(=O)Nc4cc(C(C)(C)C)on4)ccc3F)c2n1 [III-316] | 3
10 | Cc1ccc(NC(=O)c2cccc(C(F)(F)F)c2)cc1Nc1ncnc2c(N)nc(NCc3cccnc3)nc12 [II-5] | 50
11 | Cc1ccc(C(=O)Nc2cc(C(C)(C)C)on2)cc1Nc1ncnc2cnc(N(C)C3CC(N4CCN(C)CC4)C3)nc12 (stereo not shown) [III-596] | 2
12 | Cc1ccc(C(=O)NCC2CCOC2)cc1Nc1ncnc2cnc(N(C)CCN(C)C)nc12 (stereo not shown) [III-197] | > 15000
13 | Cc1ccc(C(=O)NC2CCCCC2)cc1Nc1ncnc2cnc(N(C)CCN(C)C)nc12 [III-201] | > 10000
14 | Cc1ccc(C(=O)NCc2ccc(C(C)(C)C)cc2)cc1Nc1ncnc2cnc(N3CCCC3)nc12 [III-267] | 836
15 | Cc1ccc(C(=O)Nc2cc(C(C)(C)C)nn2C)cc1Nc1ncnc2cnc(NCc3ccccc3)nc12 [III-429] | 2
16 | Cc1ccc(C(=O)Nc2cc(OCCN(C)C)cc(C(F)(F)F)c2)cc1Nc1ncnc2cnc(N(C)C)nc12 [III-155] | 2

Row | Structure (SMILES) | IC50 [nM]
17 | Cc1ccc(C(=O)Nc2ccc(F)c(C(F)(F)F)c2)cc1Nc1ncnc2cnc(N3CCN(C)CC3)nc12 [III-297] | 1
18 | Cc1ccc(C(=O)Nc2cc(CN3CCCC3)cc(C(F)(F)F)c2)cc1Nc1ncnc2cnc(N3CCCC3)nc12 [III-109] | 2
19 | COc1ncc2ncnc(Nc3cc(C(=O)Nc4cc(C(C)(C)C)nn4C)ccc3C)c2n1 [III-565] | 11
20 | COc1c(NC(=O)c2ccc(C)c(Nc3ncnc4cnc(N5CC[C@H](F)C5)nc34)c2)cc(C(C)(C)C)cc1NS(C)(=O)=O [III-295] | 17
21 | Cc1ccc(C(=O)Nc2cc(C(C)(C)C)n[nH]2)cc1Nc1ncnc2cncnc12 [V-9] | 5
22 | CC(C)(C)c1cc(NC(=O)c2ccc(F)c(Nc3ncnc4cnc(N5CCCCCC5)nc34)c2)no1 [III-85] | 7
23 | Cc1ccc(C(=O)Nc2cccc(N(C)C)c2)cc1Nc1ncnc2cnc(N3CCOCC3)nc12 [III-309] | 4
24 | Cc1ccc(C(=O)Nc2ccc(C#N)c(C(F)(F)F)c2)cc1Nc1ncnc2c(N)nc(N3CCN(C)CC3)nc12 [I-71] | 7
25 | Cc1ccc(C(=O)Nc2cccc(C(F)(F)F)c2)cc1Nc1ncnc2c(N)nc(N3CCCNCC3)nc12 [I-59] | 1
26 | Cc1ccc(C(=O)Nc2cc(C(C)(C)C)on2)cc1Nc1ncnc2cnc(NC3CC(N4CCN(C)CC4)C3)nc12 (stereo not shown) [III-592] | < 1
27 | Cc1ccc(C(=O)NCc2ccc(C(C)(C)C)cc2)cc1Nc1ncnc2cnc(N3CCCN(C)CC3)nc12 [III-218] | 293
28 | Cc1ccc(C(=O)Nc2cccc(OC(F)(F)F)c2)cc1Nc1ncnc2cnc(N(C)CCN(C)C)nc12 [III-237] | 2
29 | Cc1ccc(NS(=O)(=O)CC2CC2)cc1Nc1ncnc2cnc(N3CCN(C)CC3)nc12 [IV-60] | 2000
30 | COc1ccc(C(F)(F)F)cc1NC(=O)c1ccc(C)c(Nc2ncnc3cnc(N(C)CCN(C)C)nc23)c1 [III-234] | 15
31 | COCCN1CCN(c2ncc3ncnc(Nc4cc(C(=O)Nc5cc(C(C)(C)C)on5)ccc4C)c3n2)CC1 [III-517] | 3
32 | Cc1ccc(NC(=O)c2cccc(C(F)(F)F)c2)cc1Nc1ncnc2c(N)nc(N3CC4CC3CN4C)nc12 (stereo not shown) [II-18] | 9

More lines, now with the values ahead:

Row | IC50 [nM] | Structure (SMILES)
33 | 5 | Cc1ccc(C(=O)Nc2cc(CN3CCCC3)cc(C(F)(F)F)c2)cc1Nc1ncnc2cnc(N3CCSCC3)nc12 [III-99]
34 | < 1 | Cc1ccc(C(=O)Nc2cccc(C(F)(F)F)c2)cc1Nc1ncnc2cnc(N3CCOCC3)nc12 [III-315]
35 | 245 | Cc1ccc(C(=O)NCc2cccc(C(F)(F)F)c2)cc1Nc1ncnc2cnc(N3CCCN(C)CC3)nc12 [III-182]
36 | 5 | Cc1ccc(C(=O)Nc2ccc(Cl)c(C(F)(F)F)c2)cc1Nc1ncnc2cnc(N3CCCN(C)CC3)nc12 [III-220]
37 | 14 | Cc1ccc(C(=O)Nc2cc(C(C)(C)C)nn2C)cc1Nc1ncnc2cncnc12 [V-10]
38 | > 15000 | Cc1ccc(C(=O)NC2CCCCC2)cc1Nc1ncnc2cnc(N3CCN(C)CC3)nc12 [III-189]
39 | < 1 | Cc1ccc(C(=O)Nc2cc(N3CCN[C@H](C)C3)cc(C(F)(F)F)c2)cc1Nc1ncnc2cnc(N3CCOCC3)nc12 [III-527]
40 | 2 | Cc1ccc(C(=O)Nc2ccc(Cl)c(C(F)(F)F)c2)cc1Nc1ncnc2cnc(N(C)CCN(C)C)nc12 [III-235]
41 | 3 | Cc1ccc(C(=O)Nc2cc(C(F)(F)F)ccn2)cc1Nc1ncnc2cnc(N3CCCN(C)CC3)nc12 [III-283]
42 | 6 | COc1ccc(NC(=O)c2ccc(C)c(Nc3ncnc4cnc(N5CCN(CC6CCOC6)CC5)nc34)c2)cc1C(F)(F)F (stereo not shown) [III-432]
43 | 3 | COc1ccc(C(=O)Nc2ccc(OC)c(C(F)(F)F)c2)cc1Nc1ncnc2cnc(NCCN3CCOCC3)nc12 [III-28]
44 | > 10000 | Cc1ccc(C(=O)NC2CC2)cc1Nc1ncnc2cnc(N(C)CCN(C)C)nc12 [III-203]
45 | 14 | CN1CCN(c2nc(N)c3ncnc(Nc4cc(C(=O)Nc5cccc(C(F)(F)F)c5)ccc4Cl)c3n2)CC1 [I-23]
46 | 8 | COc1ccc(C(=O)Nc2ccc(OC)c(C(F)(F)F)c2)cc1Nc1ncnc2cnc(NCCN(C)C)nc12 [III-27]
47 | 3 | Cc1ccc(C(=O)Nc2cc(N3C[C@@H](C)N[C@@H](C)C3)cc(C(F)(F)F)c2)cc1Nc1ncnc2cnc(N3CCOCC3)nc12 [III-524]
48 | 2 | COC[C@@H]1CCCN1c1ncc2ncnc(Nc3cc(C(=O)Nc4ccc(OC)c(C(F)(F)F)c4)ccc3C)c2n1 [III-545]
49 | 7 | Cc1ccc(C(=O)Nc2cc(C(C)(C)C)nn2C)cc1Nc1ncnc2c(N)nc(N3CCN4CCCC4C3)nc12 (stereo not shown) [I-85]
50 | 4 | COCCN(C)c1ncc2ncnc(Nc3cc(C(=O)Nc4cc(C(C)(C)C)n[nH]4)ccc3C)c2n1 [III-471]
51 | 72 | Cc1ccc(NC(=O)c2cc(C(C)(C)C)nn2C)cc1Nc1ncnc2cnc(N(C)CCCN(C)C)nc12 [IV-24]
52 | 1 | COc1ncc2ncnc(Nc3cc(C(=O)Nc4cc(CN5CCCC5)cc(C(F)(F)F)c4)ccc3C)c2n1 [III-572]
53 | 41 | Cc1ccc(C(=O)NCc2ccc(C(F)(F)F)cc2)cc1Nc1ncnc2cnc(N3CCN(C)CC3)nc12 [III-227]
54 | < 1 | Cc1ccc(C(=O)Nc2cc(C(F)(F)F)ccn2)cc1Nc1ncnc2cnc(N3CCOCC3)nc12 [III-321]
55 | 3 | CC(C)(C)c1cc(NC(=O)c2ccc(F)c(Nc3ncnc4cnc(NC5CCOC5)nc34)c2)no1 (stereo not shown) [III-381]
56 | 2 | Cc1ccc(C(=O)Nc2cc(C(C)(C)C)on2)cc1Nc1ncnc2cnc(N3CCC(N4CCCC4)CC3)nc12 [III-490]
57 | 521 | CCS(=O)(=O)Nc1ccc(C)c(Nc2ncnc3cnc(N4CCN(C)CC4)nc23)c1 [IV-64]
58 | 29 | Cc1ccc(C(=O)NCc2ccc(C(F)(F)F)cc2)cc1Nc1ncnc2cnc(N3CCCCC3)nc12 [III-246]
59 | 3 | Cc1ccc(C(=O)Nc2cccc(C(C)(C)C#N)c2)cc1Nc1ncnc2cnc(N3CCCN(C)CC3)nc12 [III-180]
60 | < 1 | CNc1ncc2ncnc(Nc3cc(C(=O)Nc4cc(OCCN(C)C)cc(C(F)(F)F)c4)ccc3C)c2n1 [III-156]
61 | 4 | COc1ccc(C(C)(C)C)cc1NC(=O)c1ccc(C)c(Nc2ncnc3cnc(N4CCOCC4)nc23)c1 [III-306]
